Test results as given in US20240325327A1, “METHOD FOR ATTENUATING NEUROINFLAMMATION, AMYLOIDOPATHY AND TAUOPATHY” (Trustees of Dartmouth College, priority 2023, published 2024).
Blank lines part the entries; values can stand above or below the compound they belong to.

Experiments:
ACAT2 [1] = target: T1, ACAT2 (Homo sapiens, UniProt O75908); design: IC50 ACAT2; details: cited from earlier work
T1 sequence (O75908 1-522): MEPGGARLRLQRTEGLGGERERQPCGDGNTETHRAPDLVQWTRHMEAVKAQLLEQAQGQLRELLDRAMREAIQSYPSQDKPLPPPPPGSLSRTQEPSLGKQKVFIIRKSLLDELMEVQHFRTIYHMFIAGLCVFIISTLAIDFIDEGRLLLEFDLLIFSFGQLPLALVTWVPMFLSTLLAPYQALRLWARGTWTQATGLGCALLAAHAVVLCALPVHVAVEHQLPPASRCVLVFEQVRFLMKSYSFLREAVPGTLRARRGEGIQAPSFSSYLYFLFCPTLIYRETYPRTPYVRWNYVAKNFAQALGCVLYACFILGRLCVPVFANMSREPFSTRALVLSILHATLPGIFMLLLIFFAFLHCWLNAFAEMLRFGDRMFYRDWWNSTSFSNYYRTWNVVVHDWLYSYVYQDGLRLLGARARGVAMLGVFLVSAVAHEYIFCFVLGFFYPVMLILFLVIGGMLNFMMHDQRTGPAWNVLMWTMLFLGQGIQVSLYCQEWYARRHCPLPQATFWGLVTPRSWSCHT

N9 microglial cells = test: inflammatory responses to LPS in N9 microglial cells (qPCR, IκB-α western blot); format: cell-based, mouse; details: 0.5 μM for 4 hours, then 10, 100 or 1000 ng/mL LPS
Procedure: Cells were seeded at 1×10^5/well onto 12-well plates in RPMI-1640 with 10% bovine calf serum. […] Six hours later, mRNA was extracted, and qPCR was performed to monitor pro-inflammatory (FIG. 5A) or anti-inflammatory (FIG. 5B) gene expression. […] Thirty minutes later, proteins were extracted for western blot analysis for total IκB-α, and for phosphorylated IκB-α (p-IκB-α). *P<0.05; ** P<0.01.
It has now been shown that, in microglia, genetic inactivation of Acat1 suppresses certain pro-inflammatory response genes (FIG. 4A and FIG. 4C, e.g., IL-1β, iNOS, MCP1, Cxc19, Cxc110 and IL-6) and induces certain anti-inflammatory response genes (FIG. 4B and FIG. 4D, e.g., YM1) in the hippocampus (FIG. 4A and FIG. 4B) and cortex (FIG. 4C and FIG. 4D).

IL-4Rα [2] = test: IL-4Rα expression in N9 microglia (immunoblot); format: cell-based, mouse
Procedure: Cells were harvested for immunoblot analysis for IL-4Rα. Vinculin was the loading control. Data expressed as mean+/−SEM, * p<0.05, ** p<0.01.
(§1) IL-4Rα expression was determined by convention methods. 25 μg/mL cholesterol equals 38 μg/mL total myelin debris protein. Data are expressed as mean±SEM. *P<0.05; **P<0.01.
In microglia, various cholesterol-rich agents including myelin debris and damaged cell membranes enter the cells. […] In addition, the effects of ACAT1 blockade were tested in N9 and the human microglia-like cell line HMC3, which both express normal TREM-2 receptors.

IL-4Rα [3] = test: IL-4Rα expression in HMC3 microglia (western blot); format: cell-based, human; details: for IL-4Rα protein content: human myelin debris-treated HMC3 cells, 48 hours co-incubation
Procedure: as §1
[…] Protein was isolated and analyzed by western blot analysis. Vinculin was the loading control. […] Data are expressed as mean±SEM. *P<0.05; **P<0.01.
(§2) Subsequently, myelin debris from human brains was prepared and it was observed that the cholesterol/protein ratio, as well as the protein composition between mouse myelin debris and human myelin debris, were very similar.

ABCA1 = ABCA1 protein content in human myelin debris-treated HMC3 cells; format: cell-based; details: human myelin debris at 25 μg/mL cholesterol, 0.5 μM inhibitor, 24 hours
Procedure: Afterward, cells were harvested for western blot analyses. Lysates of HEK293 cells and lysates of HMC3 cells treated with 10 μM LXR agonist T0901317 for 24 hours were respectively used as negative and positive controls for ABCA1 signals. […] Data are expressed as mean±SEM.
as §2

[4] = test system: mouse model for Alzheimer's Disease; details: in vivo; cited from earlier work
ACAT2 [5] = target: T1, ACAT2; details: at 1 mM; cited from earlier work
ACAT1 = ACAT1 inhibition, literature values; format: biochemical, human; details: ratio of IC50 values ACAT2/ACAT1
Source text: Cholesterol is stored as cholesteryl esters. For cholesterol esterification, there are two Acyl-CoA:Cholesterol Acyltransferase (ACAT) genes, SOAT1 and SOAT2, encoding two homologous but distinct enzymes, ACAT1 and ACAT2. Both enzymes use long-chain fatty acyl-CoAs and sterols with 3-beta-OH, including cholesterol and various oxysterols as their substrates. ACAT1 is the major cholesterol storage enzyme in the brain.
Biophys. Res. Comm. […] Here, the ACAT activity was monitored using the ACAT enzyme assay in vitro.

human ACAT1 [6] = target: T2, human ACAT1 (Homo sapiens, UniProt P35610); details: cited from earlier work
T2 sequence (P35610 1-550): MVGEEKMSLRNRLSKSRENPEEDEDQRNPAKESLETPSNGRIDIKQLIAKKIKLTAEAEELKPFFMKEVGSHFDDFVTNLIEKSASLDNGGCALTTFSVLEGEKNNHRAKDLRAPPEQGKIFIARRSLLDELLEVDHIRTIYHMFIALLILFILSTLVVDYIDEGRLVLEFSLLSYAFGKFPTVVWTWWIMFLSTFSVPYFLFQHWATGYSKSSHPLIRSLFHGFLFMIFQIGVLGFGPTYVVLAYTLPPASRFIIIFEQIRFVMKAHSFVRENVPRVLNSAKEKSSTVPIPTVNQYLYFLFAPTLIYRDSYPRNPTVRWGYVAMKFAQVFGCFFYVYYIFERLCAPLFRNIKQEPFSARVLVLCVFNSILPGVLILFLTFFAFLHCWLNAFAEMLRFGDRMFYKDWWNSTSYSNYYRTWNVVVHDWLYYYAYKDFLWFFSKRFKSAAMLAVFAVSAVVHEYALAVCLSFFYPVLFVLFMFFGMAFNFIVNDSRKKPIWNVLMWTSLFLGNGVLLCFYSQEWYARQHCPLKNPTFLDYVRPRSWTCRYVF

human ACAT1 [7] = target: T2, human ACAT1; test: mixed liposome ACAT1 assay
Procedure: In vitro Mixed Liposomal ACAT Activity Assay. […] Lysed cells were collected and aliquoted into pre-chilled tubes containing the liposomal mixture of taurocholate, phosphatidylcholine, and cholesterol. Tubes were vortexed and kept on ice for 5 minutes. Samples were then incubated in a 37° C. shaking water bath with ^3H-oleoyl CoA added for 10 minutes. The assay was stopped by adding CHCl3:MeOH (2:1). Lipids were extracted and analyzed by the same TLC method described herein.

Compound: CCCC[C@H](C)[C@@H]1CC(=O)N[C@@H](Cc2ccccc2)C(=O)N[C@@H](C)C(=O)N[C@H](CC(C)C)C(=O)O1 [Beauveriolide I]
IC50 (ACAT2 [1]): 20 µM

Compound: CCCCCCCCC(=O)Nc1ccccc1-c1ccccc1 [compound 2]
IC50 (ACAT2 [1]): 414 µM

Compound: CCCCCCCCCNc1cc(-c2ccccc2)nn1-c1ccccc1 [compound 16]
IC50 (ACAT2 [1]): 97 µM

Compound: CCCCCCCCC(=O)Nc1cc(-c2ccccc2)nn1-c1ccccc1 [compound 14]
IC50 (ACAT2 [1]): 75 µM

Compound: CSc1cc(C)nc(SC)c1NC(=O)CN1CCN(CCSc2nc3ccccc3[nH]2)CC1 [K-604]
inflammatory responses to LPS (N9 microglial cells): attenuates inflammatory responses to LPS
IL-4Rα expression (IL-4Rα [2]; N9 cells, 0.5 μM for 4 or 12 hours): increases expression of the receptor IL-4Rα
IL-4Rα expression (IL-4Rα [2]; mouse myelin debris-treated N9 cells, 21 hours): upregulates IL-4Rα expression
IL-4Rα protein content (IL-4Rα [3]): IL-4Rα protein content increases
IL-4Rα expression (IL-4Rα [3]; mouse myelin debris-treated HMC3 cells, 21 hours): upregulates IL-4Rα expression
ABCA1 protein content (ABCA1): increased significantly

Compound: CC(C)c1cc(C(C)C)c(CC(=O)NS(=O)(=O)Oc2c(C(C)C)cccc2C(C)C)c(C(C)C)c1 [CI 1011]
amyloidopathy / cognitive deficits in mouse model for AD [4]: reduce amyloidopathy

Compound: COc1ccc([C@@H](O)[C@@H](C)Oc2ccc([C@H]3O[C@H](c4ccc(O[C@H](C)[C@H](O)c5ccc6c(c5)OCO6)c(OC)c4)[C@H](C)[C@H]3C)cc2OC)cc1OC [manassantin B]
inhibition of hACAT-2 (ACAT2 [5]): 32%

Compound: CC(C)c1cccc(C(C)C)c1NC(=O)CC(=O)C(Cc1ccccc1)Cc1ccc(OC(=O)CCCCCCN2CCCCCC2=O)cc1 (centres unmarked) [Compound 1C]
IC50 (ACAT2 [1]): 0.53 µM

Compound: CCCCCCCC(=O)Nc1ccccc1-c1ccccc1 [compound 1]
IC50 (ACAT2 [1]): 230 µM

Compound: CCCCCCCC(=O)Nc1cc(-c2ccccc2)nn1-c1ccccc1 [compound 13]
IC50 (ACAT2 [1]): 53 µM

Compound: CCCCCCCC[C@H](SCCCCCC)C(=O)Nc1c(SC)cc(C)nc1SC [CP113,818]
amyloidopathy / cognitive deficits in mouse model for AD [4]: reduce amyloidopathy and rescue cognitive deficits

Compound: CC(C)c1cccc(C(C)C)c1NC(=O)CC(=O)C(Cc1ccccc1)Cc1ccc(O)cc1 (centres unmarked) [Compound 1B]
IC50 (ACAT2 [1]): 1.5 µM

Compound: CCOC(=O)OC(=O)OCC [diethyl pyrocarbonate]
selectivity for ACAT1 over ACAT2 (ACAT1): 4 fold
IC50 (human ACAT1 [6]): 44 µM
IC50 (ACAT2 [1]): 170 µM

EC50 (human ACAT1 [7]): 0.0058 µM
potency relative to F12511 as ACAT1 inhibitor (human ACAT1 [7]; ratio of EC50 values): ~7 times
Compound: CCCCCCCCCCCCS(=O)(=O)[C@](F)(C(=O)Nc1cc(C)c(O)c(C)c1C)c1ccccc1 [F26]

Compound: Saucerneol B
IC50 (ACAT2 [1]): 124 µM

Compound: CCCCCCCCCCCCS[C@H](C(=O)Nc1cc(C)c(O)c(C)c1C)c1ccccc1 [F12511]
IL-4Rα protein content (IL-4Rα [3]): IL-4Rα protein content increases
ABCA1 protein content (ABCA1): increased significantly
IC50 (ACAT2 [1]): 0.11 µM
